Laboratory results from paper PMC7096246 (Journal of pharmaceutical sciences, 2020).
Values after ≈ are worked out from the molar mass of the structure shown.

Tests used:
[1] = ref DrugBank database, DB01229 and DB08889; cited from earlier work
[2] = cited from earlier work
[3] = Saturation solubility in 50% FBS/PBS; format: physicochemical
[4] = Water solubility measured in the current study; format: physicochemical

Row | solubility at 24 h [3] [µg/mL] | solubility at 24 h [4] [µg/mL] | SMILES | water solubility as reported in DrugBank [1] [µg/mL] | plasma protein binding [2]
1 | 9.3 ± 0.2 (≈ 12.9 µM) | 1.3 ± 0.2 (≈ 1.81 µM) | CC(C)C[C@H](NC(=O)[C@H](CCc1ccccc1)NC(=O)CN1CCOCC1)C(=O)N[C@@H](Cc1ccccc1)C(=O)N[C@@H](CC(C)C)C(=O)[C@@]1(C)CO1 [CFZ, carfilzomib] | 4.8 (≈ 6.67 µM) | 98%
2 | – | – | CC(=O)O[C@H]1C(=O)[C@@]2(C)[C@H]([C@H](OC(=O)c3ccccc3)[C@]3(O)C[C@H](OC(=O)[C@H](O)[C@@H](NC(=O)c4ccccc4)c4ccccc4)C(C)=C1C3(C)C)[C@]1(OC(C)=O)CO[C@@H]1C[C@@H]2O [PTX, paclitaxel] | – | 88-98%
